Test results reported in patent US20240245703A1, “TOPICAL APPLICATION OF AGENTS TO REDUCE SUN SENSITIVITY AND IMPROVE TOPICAL PHOTODYNAMIC THERAPY” (Wright State University, priority 2021, published 2024).

Columns and labels:
UVB-induced erythema = assay: UVB-induced skin erythema (Mexameter) in wild-type and XPA KO mice; format: in vivo; settings: WT and XPA KO mice, 5 kJ/m^2 UVB, 100 μL 500 μM topical immediately after, 4 h; effect most noted in XPA KO
Method: Erythema was measured by a Mexameter® device (Courage+Khazaka electronic GmbH, Cologne, Germany) before treatment and after 4 hours of treatment. […] UVB-induced skin inflammation involves many cytokines including interleukin-6 (IL-6) and tumor necrosis factor-alpha (TNFα).
Groups of 6-8 mice underwent erythema measurements with a Mexameter® device before irradiation with various fluences (1.0, 2.5, and 5.0 kJ/m^2) of UVB or no UVB (sham), and four hours later erythema was measured to determine the cutaneous erythema and cytokine responses of UVB irradiation on wild-type vs XPA KO mice. Similarly, triplicate skin biopsies were obtained and mRNA isolated, and quantitative reverse transcription polymerase chain reaction (qRT-PCR) used to quantify mRNA levels of cytokines TNF ? and IL-6. The housekeeping gene GAPDH was used as control. […] The data is shown as the mean±S.E. of fold change in baseline erythema levels. * Denotes statistically significant (P<0.05) differences between UVB- and sham-treated mice. #Denotes statistically significant (P<0.05) differences between XPA KO and wild-type erythema responses.
The data is shown as the mean±S.E. of fold change in baseline erythema levels. * Denotes statistically significant (P<0.05) differences between UVB- and sham-treated mice

TNFα and IL-6 mRNA = assay: UVB-induced cytokine mRNA (qRT-PCR) in mouse skin biopsies; format: in vivo; settings: mice, topical post-UVB, skin biopsies 4 h
HaCaT keratinocytes = assay: PDT (5-ALA + blue light) MVP release in HaCaT keratinocytes; format: cell-based, human; design: PDT-induced MVP release: dose or concentration left out as unconfirmed; settings: HaCaT keratinocytes, imipramine added immediately after PDT, supernatants 4 h
Method: PDT results in acute cellular destruction and inflammation and photosensitivity, as well as delayed immunosuppression. […] Thus, it was of further interest whether experimental PDT of HaCaT keratinocytes generated MVP in vitro. To that end, HaCaT cells were pretreated with 5-ALA alone, or blue light alone, or a 4 hour incubation of 5-ALA in the dark followed by various fluences of blue light, and MVP were measured in the supernatants at 4 hours post blue light. 100 nM CPAF and TPA were used as positive controls for MVP release.
(§1) For the data shown in FIG. 14, HaCaT keratinocytes were treated with sham (no treatment), 0.1% ethanol vehicle control (VEH), 100 nM TPA, 100 nM CPAF, 1 mM 5-ALA for 4 hours, or 5-ALA followed by various fluences (2.5-20 J/cm^2) of blue light or blue light alone. Levels of MVPs released into supernatants were measured at 4 hours. […] For the data shown in FIG. 15, human skin explants were treated with sham, 100 μL vehicle (90% ethanol+10% DMSO) (VEH), 1 μM TPA, 1 µM CPAF, 1 mM 5-ALA for 4 hours, blue light or 5-ALA+blue light at 20 J/cm^2. After four hours, duplicate 6-mm punch biopsies were obtained, weighed, and MVPs were measured. The data are the mean±SE from 3-4 separate experiments conducted in duplicate. * Denotes statistically significant (P <0.05) changes from sham values.
(§2) Supernatants were collected at 4 hours and MVP measured. The data are the mean±SE MVP fold change from sham-treated values. For the data shown in FIG. 17, human skin explants were treated as in FIG. 15, with the exception that in some experiments 100 μL of 5 mM IMIP was added post-PDT. MVP were measured in duplicate 6-mm punch biopsies obtained 4 hours post-treatment.

human skin explants = assay: PDT-induced MVP release in human skin explants ex vivo; format: cell-based; settings: 100 μL of 5 mM added post-PDT, 4 h
Method: as §1, §2

HaCaT XPA KO = assay: UVB-induced MVP release in HaCaT XPA deficient cells; format: cell-based, human; settings: HaCaT XPA KO cell line
Method: HaCaT cells and HaCaT XPA deficient cells received no treatment (NT) or 1 KJ/m^2, 2.5 KJ/m^2, or 5 KJ/m^2 UVB radiation. After 4 hours, the supernatant was removed and the MVP concentration was measured. The numbers of MVP shown in FIG. 1 were normalized to cell count and NT. Data in FIG. 1 show the mean+S.E. fold change of at least three experiments. Groups were compared using One-Way ANOVA. (P<0.01) was considered statistically significant. * denotes changes between NT and UVB. #denotes changes between HaCaT and HaCaT XPA deficient cells.

aSMase = settings: cited from earlier work

CN(C)CCCN1c2ccccc2CCc2ccccc21 [Imipramine]
UVB-induced erythema response (UVB-induced erythema): blocked the erythema responses | UVB-induced IL-6 mRNA (TNFα and IL-6 mRNA): blocks IL-6 mRNA responses | UVB-induced TNFα mRNA (TNFα and IL-6 mRNA): blocks TNFα mRNA responses | PDT-induced MVP release (HaCaT keratinocytes): blocked PDT-induced MVP release | PDT-induced MVP release (human skin explants): blocked PDT-induced MVP release | increased MVP generation of XPA deficient keratinocytes (HaCaT XPA KO): blocked by imipramine | Residual ASM Activity (aSMase; 10 micromolar, PC12 cells, incubation time 0.5 h, % of corresponding control values): 32.6% | residual aSMase activity after treatment (aSMase; from Kornhuber et al. 2008): 30.6%
